We go through 17 molecules from patent US11285156B2, “Substituted piperazines as KRAS G12C inhibitors” (Amgen Inc., priority 2018, dated 2022).

The target of experiment [1] is GDP-bound KRAS protein (aa 1-169), containing both G12C and C118A amino acid substitutions (Homo sapiens (Human), UniProt P01116, C118A/G12C). The experiment can be described thus: Coupled nucleotide exchange assay (SOS-mediated nucleotide exchange, AlphaScreen). It counts as biochemical. As to conditions: 5 min compound pre-incubation; for IC50: read-out: Coupled exchange IC50 (5 min; μM).
GDP-bound KRAS protein (aa 1-169), containing both G12C and C118A amino acid substitutions, sequence (P01116 other isoform, or with tags, fused parts or gaps G12C/C118A): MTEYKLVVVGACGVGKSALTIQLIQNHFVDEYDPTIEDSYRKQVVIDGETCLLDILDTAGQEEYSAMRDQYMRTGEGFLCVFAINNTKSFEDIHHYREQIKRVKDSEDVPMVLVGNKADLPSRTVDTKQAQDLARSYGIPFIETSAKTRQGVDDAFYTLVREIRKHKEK

Experiment [2] deals with Phosphorylation of ERK1/2 in MIA PaCa-2 cells. As to the kind of experiment: Phospho-ERK1/2 MSD assay in MIA PaCa-2 cells. It counts as cell-based. As to conditions: Homo sapiens, MIA PaCa-2, 2 h, read-out: p-ERK IC50 (2 h, MiaPaCa-2; μM). Summed up: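 Phospho-ERK1/2 measured by MSD electrochemiluminescence kit in RIPA lysates of MIA PaCa-2 cells. Cells were treated with compound titrations for 2 or 4 h at 37 °C, 5% CO2, followed by a 10 min pulse of 10 ng/mL EGF.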

Experiment [3] relates to Phosphorylation of ERK1/2 in A549 cells. As to the kind of experiment: Phospho-ERK1/2 MSD assay in A549 cells. It counts as cell-based. As to conditions: Homo sapiens, A549, 2 h, read-out: p-ERK IC50 (2 h, A549; μM). Summed up:
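Readout: MSD phospho-ERK1/2 signal after compound (2 or 4 h) and 10 min EGF stimulation at 10 ng/mL.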

Where [4] appears, read: 2 h compound treatment, MIA PaCa-2 cells, EGF stimulated.
Setting [5] is: 2 h compound treatment, A549 cells, EGF stimulated.

Read-outs that look alike come from different tables or passages of the source. A value given as a limit tells only on which side of the number the result lay.

The IC50 is the concentration that gives 50% inhibition. Turning to `C=CC(=O)N1C[C@H](C)N(c2nc(=O)n(-c3c(C(C)C)nc(CN4CCC4)nc3C(C)C)c3nc(-c4ccccc4F)c(Cl)cc23)C[C@H]1C` [Example 161, 1-[2-(Azetidin-1-ylmethyl)-4,6-diisopropyl-pyrimidin-5-yl]-6-chloro-4-[(2S,5R)-2,5-dimethyl-4-prop-2-enoyl-piperazin-1-yl]-7-(2-fluorophenyl)pyrido[2,3-d]pyrimidin-2-one], the IC50 in experiment [1] is 0.294 µM; in experiment [2], 0.061 µM; in experiment [3], > 7.5 µM.
In the case of `C=CC(=O)N1C[C@H](C)N(c2nc(=O)n(-c3c(C(C)C)nc(CN4CCOCC4)nc3C(C)C)c3nc(-c4ccccc4F)c(Cl)cc23)C[C@H]1C` [Example 162, 6-Chloro-1-[4,6-diisopropyl-2-(morpholinomethyl)pyrimidin-5-yl]-4-[(2S,5R)-2,5-dimethyl-4-prop-2-enoyl-piperazin-1-yl]-7-(2-fluorophenyl)pyrido[2,3-d]pyrimidin-2-one], the IC50 in experiment [1] was 0.133 µM; in experiment [2] (setting [4]), 0.078 µM; in experiment [3] (setting [5]) it was > 7.5 µM.
On to `C=CC(=O)N1C[C@H](C)N(c2nc(=O)n(-c3c(C(C)C)nc(CN4CCCC4)nc3C(C)C)c3nc(-c4ccccc4F)c(Cl)cc23)C[C@H]1C` [Example 163, 6-Chloro-1-[4,6-diisopropyl-2-(pyrrolidin-1-ylmethyl)pyrimidin-5-yl]-4-[(2S,5R)-2,5-dimethyl-4-prop-2-enoyl-piperazin-1-yl]-7-(2-fluorophenyl)pyrido[2,3-d]pyrimidin-2-one], for which the concentration for half-maximal inhibition (IC50) in experiment [1] is 0.127 µM; in experiment [2] (setting [4]) it was 0.055 µM; in experiment [3] (setting [5]), > 7.5 µM.
For `C=CC(=O)N1C[C@H](C)N(c2nc(=O)n(-c3c(C(C)C)nc(C)nc3C(C)C)c3nc(-c4ccccc4F)c(Cl)cc23)C[C@H]1C` [Example 167, 6-Chloro-1-(4,6-diisopropyl-2-methyl-pyrimidin-5-yl)-4-[(2S,5R)-2,5-dimethyl-4-prop-2-enoyl-piperazin-1-yl]-7-(2-fluorophenyl)pyrido[2,3-d]pyrimidin-2-one] the same measures were 0.052 µM, 0.083 µM and > 7.5 µM.
For `C=CC(=O)N1C[C@H](C)N(c2nc(=O)n(-c3c(C(C)C)nc(C4CC4)nc3C(C)C)c3nc(-c4ccccc4F)c(Cl)cc23)C[C@H]1C` [Example 168, 6-Chloro-1-(2-cyclopropyl-4,6-diisopropyl-pyrimidin-5-yl)-4-[(2S,5R)-2,5-dimethyl-4-prop-2-enoyl-piperazin-1-yl]-7-(2-fluorophenyl)pyrido[2,3-d]pyrimidin-2-one], the IC50 in experiment [1] was 0.096 µM; in experiment [2] (setting [4]), 0.198 µM; in experiment [3] (setting [5]) it was 4.34 µM.
On to `C=CC(=O)N1C[C@H](C)N(c2nc(=O)n(-c3c(C(C)C)nc(CN4CCN(C)CC4)nc3C(C)C)c3nc(-c4ccccc4F)c(Cl)cc23)C[C@H]1C` [Example 170, 6-Chloro-1-[4,6-diisopropyl-2-[(4-methylpiperazin-1-yl)methyl]pyrimidin-5-yl]-4-[(2S,5R)-2,5-dimethyl-4-prop-2-enoyl-piperazin-1-yl]-7-(2-fluorophenyl)pyrido[2,3-d]pyrimidin-2-one], for which the IC50 in experiment [1] is 0.064 µM; in experiment [2] (setting [4]), 0.077 µM; in experiment [3] (setting [5]) it was > 7.5 µM.
For `C=CC(=O)N1C[C@H](C)N(c2nc(=O)n(-c3c(C(C)C)ncnc3C(C)C)c3nc(-c4ccccc4C(F)(F)F)c(Cl)cc23)C[C@H]1C` [Example 172, 6-Chloro-1-(4,6-diisopropylpyrimidin-5-yl)-4-[(2S,5R)-2,5-dimethyl-4-prop-2-enoyl-piperazin-1-yl]-7-[2-(trifluoromethyl)phenyl]pyrido[2,3-d]pyrimidin-2-one] the same measures were 0.08 µM, 0.099 µM and > 7.5 µM.
On to `C=CC(=O)N1C[C@H](C)N(c2nc(=O)n(-c3c(C(C)C)ncnc3C(C)C)c3nc(-c4cc(O)ccc4C)c(Cl)cc23)C[C@H]1C` [Example 174, 6-Chloro-1-(4,6-diisopropylpyrimidin-5-yl)-4-[(2S,5R)-2,5-dimethyl-4-prop-2-enoyl-piperazin-1-yl]-7-(5-hydroxy-2-methyl-phenyl)pyrido[2,3-d]pyrimidin-2-one], for which, in experiment [1], the “Coupled exchange IC50 (5 min; μM)” value turned out to be 0.069 µM. Besides, the IC50 in experiment [2] (setting [4]) was 0.082 µM; in experiment [3] (setting [5]) it was > 7.5 µM.
For `C=CC(=O)N1CCN(c2nc(CN3CCOCC3)c(-c3ccccc3C(C)C)c3nc(-c4ccccc4F)c(Cl)cc23)CC1` [Example 181, 1-(4-(3-Chloro-2-(2-fluorophenyl)-8-(2-isopropylphenyl)-7-(morpholinomethyl)-1,6-naphthyridin-5-yl)piperazin-1-yl)prop-2-en-1-one], the IC50 in experiment [1] is 4.53 µM; in experiment [2] (setting [4]), 10 µM; in experiment [3] (setting [5]), > 7.5 µM.
Regarding `C=CC(=O)N1C[C@H](C)N(c2nc(=N)n(-c3ccccc3C(C)C)c3nc(-c4ccccc4F)c(Cl)cc23)C[C@H]1C` [Example 185, 1-((2R,5S)-4-(6-Chloro-7-(2-fluorophenyl)-2-imino-1-(2-isopropylphenyl)-1,2-dihydropyrido[2,3-d]pyrimidin-4-yl)-2,5-dimethylpiperazin-1-yl)prop-2-en-1-one], the IC50 was 0.055 µM in experiment [1], 0.08 µM in experiment [2] (setting [4]) and > 7.5 µM in experiment [3] (setting [5]).
For `C=CC(=O)N1C[C@H](C)N(c2nc(=O)n(-c3ccccc3C(C)C)c3nc(-c4ccccc4F)c(Cl)cc23)C[C@H]1C` [Example 186, 4-((2S,5R)-4-Acryloyl-2,5-dimethylpiperazin-1-yl)-6-chloro-7-(2-fluorophenyl)-1-(2-isopropylphenyl)pyrido[2,3-d]pyrimidin-2(1H)-one] the same measures were 0.093 µM, 0.199 µM and > 7.5 µM.
With `C=CC(=O)N1C[C@H](C)N(c2nc(=O)n(-c3c(C(C)C)nc(N(C)C(C)=O)nc3C(C)C)c3nc(-c4ccccc4F)c(Cl)cc23)C[C@H]1C` [Example 187, N-[5-[6-Chloro-4-[(2S,5R)-2,5-dimethyl-4-prop-2-enoyl-piperazin-1-yl]-7-(2-fluorophenyl)-2-oxo-pyrido[2,3-d]pyrimidin-1-yl]-4,6-diisopropyl-pyrimidin-2-yl]-N-methyl-acetamide], the “Coupled exchange IC50 (5 min; μM)” value in experiment [1] stood at 0.09 µM. Moreover, the figures for the IC50 in experiment [2] (setting [4]) and in experiment [3] (setting [5]) were 0.081 µM and 0.317 µM, respectively.
Take `C=CC(=O)N1C[C@H](C)N(c2nc(=O)n(-c3c(C(C)C)nc(NC(C)=O)nc3C(C)C)c3nc(-c4ccccc4F)c(Cl)cc23)C[C@H]1C` [Example 188, N-[5-[6-Chloro-4-[(2S,5R)-2,5-dimethyl-4-prop-2-enoyl-piperazin-1-yl]-7-(2-fluorophenyl)-2-oxo-pyrido[2,3-d]pyrimidin-1-yl]-4,6-diisopropyl-pyrimidin-2-yl]acetamide]: in experiment [1], the “Coupled exchange IC50 (5 min; μM)” value is 0.038 µM. Also, the IC50 was 0.04 µM in experiment [2] (setting [4]) and 4.98 µM in experiment [3] (setting [5]).
Take `C=CC(=O)N1C[C@H](C)N(c2nc(=O)n(-c3c(N)ncnc3C(C)C)c3nc(-c4ccccc4F)c(Cl)cc23)C[C@H]1C` [Example 189, 4-((2S,5R)-4-Acryloyl-2,5-dimethylpiperazin-1-yl)-1-(4-amino-6-isopropylpyrimidin-5-yl)-6-chloro-7-(2-fluorophenyl)pyrido[2,3-d]pyrimidin-2(1H)-one]: the IC50 in experiment [1] was 0.158 µM; in experiment [2] (setting [4]) it was 0.209 µM; in experiment [3] (setting [5]), > 7.5 µM.
For `C=CC(=O)N1C[C@H](C)N(c2nc(=O)n(-c3c(N)ncnc3C(C)C)c3nc(-c4c(O)cccc4F)c(Cl)cc23)C[C@H]1C` [Example 190, 4-((2S,5R)-4-Acryloyl-2,5-dimethylpiperazin-1-yl)-1-(4-amino-6-isopropylpyrimidin-5-yl)-6-chloro-7-(2-fluoro-6-hydroxyphenyl)pyrido[2,3-d]pyrimidin-2(1H)-one], in experiment [1], the “Coupled exchange IC50 (5 min; μM)” value amounted to 0.126 µM. Also, the IC50 in experiment [2] (setting [4]) is 1.71 µM; in experiment [3] (setting [5]), > 7.5 µM.
For `C=CC(=O)N1C[C@H](C)N(c2nc(=O)n(-c3c(N)ncnc3C(C)C)c3nc(-c4c(N)cccc4F)c(Cl)cc23)C[C@H]1C` [Example 192, 4-((2S,5R)-4-Acryloyl-2,5-dimethylpiperazin-1-yl)-7-(2-amino-6-fluorophenyl)-1-(4-amino-6-isopropylpyrimidin-5-yl)-6-chloropyrido[2,3-d]pyrimidin-2(1H)-one] the same measures were 0.029 µM, 0.161 µM and > 7.5 µM.
As to `C=CC(=O)N1C[C@H](C)N(c2nc(=O)n(-c3c(C)nc(C)nc3C(C)C)c3nc(-c4ccccc4F)c(Cl)cc23)C[C@H]1C` [Example 193, 4-((2S,5R)-4-Acryloyl-2,5-dimethylpiperazin-1-yl)-6-chloro-7-(2-fluorophenyl)-1-(4-isopropyl-2,6-dimethylpyrimidin-5-yl)pyrido[2,3-d]pyrimidin-2(1H)-one], the IC50 in experiment [1] is 0.056 µM; in experiment [2] (setting [4]), 0.055 µM; in experiment [3] (setting [5]), > 7.5 µM.
